Test results from US20150105252A1, “SUBSTITUTED PYRAZOLES AS HERBICIDES” (E I DU PONT DE NEMOURS AND COMPANY, priority 2013, published 2015).

Columns and labels:
soybean [1] = test: Test C preemergence; type: in vivo, Glycine max
Procedure, shortened: (§1)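 Seeds were sown in a loam soil–sand blend and sprayed preemergence with compounds formulated in a non-phytotoxic solvent mixture containing surfactant. Postemergence plants, grown in peat/vermiculite medium to 2–18 cm (1- to 4-leaf stage), received the same formulation. After 13 to 15 days in a greenhouse, injury was rated visually against controls (0 = no effect, 100 = complete control).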

crabgrass, large [2] = test: Test A preemergence; type: in vivo, Digitaria sanguinalis; details: 0 to 100 scale
Procedure, shortened: (§2)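 Injury readout: eye-scored versus untreated controls, 0 to 100. Exposure period: ~10 days, greenhouse. Application: soil-directed spray over sown seed (pre) or spray on seedlings 2–10 cm tall with one or two leaves (post), compound carried in non-phytotoxic solvent including surfactant.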

velvetleaf [3] = test: Test C postemergence; type: in vivo, Abutilon theophrasti; details: for Plant response rating (scale of 0 to 100), Velvetleaf: 16 g ai/ha; for Velvetleaf plant response rating / Plant response rating, Velvetleaf: postemergence; for Velvetleaf plant response rating: 62 g ai/ha, scale 0 to 100; for Plant response rating, Velvetleaf: 125 g ai/ha, scale 0 to 100, 0 no effect, 100 complete control
Procedure, shortened: as §1

wheat = test: Test C postemergence; type: in vivo, Triticum aestivum; details: for Plant response rating (scale of 0 to 100), Wheat: 16 g ai/ha; for Wheat plant response rating / Plant response rating, Wheat: postemergence; for Wheat plant response rating: 62 g ai/ha, scale 0 to 100; for Plant response rating, Wheat: 125 g ai/ha, scale 0 to 100, 0 no effect, 100 complete control
Procedure, shortened: as §1

nutsedge, yellow = test: Test C preemergence; type: in vivo, Cyperus esculentus
Procedure, shortened: as §1

pigweed = test: Test A postemergence; type: in vivo, Amaranthus retroflexus
Procedure, shortened: as §2

barnyardgrass [4] = test: Test A preemergence; type: in vivo, Echinochloa crus-galli; details: 0 to 100 scale
Procedure, shortened: as §2

crabgrass, large [5] = test: Test A postemergence; type: in vivo, Digitaria sanguinalis
Procedure, shortened: as §2

barnyardgrass [6] = test: Test A postemergence; type: in vivo, Echinochloa crus-galli; details: Postemergence
Procedure, shortened: as §2

soybean [7] = test: Test C postemergence; type: in vivo, Glycine max; details: for Plant response rating (scale of 0 to 100), Soybean: 16 g ai/ha; for Soybean plant response rating / Plant response rating, Soybean: postemergence; for Soybean plant response rating: 62 g ai/ha, scale 0 to 100; for Plant response rating, Soybean: 125 g ai/ha, scale 0 to 100, 0 no effect, 100 complete control
Procedure, shortened: as §1

oilseed rape = test: Test C postemergence; type: in vivo, Brassica napus; details: for Plant response rating (scale of 0 to 100), Oilseed Rape: 16 g ai/ha; for Oilseed Rape plant response rating: scale 0 to 100; for Plant response rating, Oilseed Rape: 125 g ai/ha, scale 0 to 100, 0 no effect, 100 complete control
Procedure, shortened: as §1

corn = test: Test C postemergence; type: in vivo, Zea mays; details: for Plant response rating (scale of 0 to 100), Corn: 16 g ai/ha; for Corn plant response rating: scale 0 to 100; for Plant response rating, Corn: 125 g ai/ha, scale 0 to 100, 0 no effect, 100 complete control
Procedure, shortened: as §1

velvetleaf [8] = test: Test C preemergence; type: in vivo, Abutilon theophrasti
Procedure, shortened: as §1

velvetleaf [9] = test: Test A preemergence; type: in vivo, Abutilon theophrasti; details: 0 to 100 scale
Procedure, shortened: as §2

barnyardgrass [10] = test: Test C postemergence; type: in vivo, Echinochloa crus-galli; details: for Plant response rating (scale of 0 to 100), Barnyardgrass: 16 g ai/ha; for Barnyardgrass plant response rating: scale 0 to 100; for Plant response rating, Barnyardgrass: 125 g ai/ha, scale 0 to 100, 0 no effect, 100 complete control
Procedure, shortened: as §1

[11] = Preemergence, 16 g ai/ha, scale 0 to 100
[12] = preemergence, 31 g ai/ha, scale 0 to 100 (0 no effect, 100 complete control), 13 to 15 days
[13] = preemergence, 62 g ai/ha, 13 to 15 days, scale 0 to 100, 0 = no effect, 100 = complete control
[14] = preemergence, 125 g ai/ha, scale 0 to 100, 0 is no effect, 100 is complete control
[15] = Preemergence, 500 g ai/ha, 0 no effect, 100 complete control
[16] = preemergence, 125 g ai/ha, visual injury, approx. 10 days
[17] = Postemergence, 31 g ai/ha, visually evaluated after 13 to 15 days
[18] = Postemergence, 500 g ai/ha, visual rating after approx. 10 days, 0 to 100 scale (0 no effect, 100 complete control)
[19] = postemergence, 125 g ai/ha, about 10 days, visual rating on 0 to 100 scale (0 no effect, 100 complete control)
[20] = 125 g ai/ha, 0 to 100 scale, 0 no effect, 100 complete control
[21] = 500 g ai/ha, visual rating after approx. 10 days, 0 to 100 scale (0 no effect, 100 complete control)

Compound: CCONC(=O)c1cc(CC)n(Cc2ccnc(C(F)(F)F)c2)n1 [Compound 77]
- Plant response rating, Soybean (soybean [1]; [11]): 0
- Soybean plant response rating (soybean [1]; [12]): 10
- Plant response rating, Soybean (soybean [1]; [13]): 20
- Soybean plant response rating (soybean [1]; [14]): 50
- Crabgrass, Large plant response rating (crabgrass, large [2]; [15]): 100
- Crabgrass, Large plant response rating (crabgrass, large [2]; [16]): 100
- Plant response rating (scale of 0 to 100), Velvetleaf (velvetleaf [3]; Postemergence): 10
- Plant response rating (scale of 0 to 100 where 0 is no effect and 100 is complete control), Velvetleaf (velvetleaf [3]; [17]): 15
- Velvetleaf plant response rating (velvetleaf [3]): 15
- Plant response rating, Velvetleaf (velvetleaf [3]): 20
- Plant response rating (scale of 0 to 100), Wheat (wheat; Postemergence): 0
- Plant response rating (scale of 0 to 100 where 0 is no effect and 100 is complete control), Wheat (wheat; [17]): 0
- Wheat plant response rating (wheat): 5
- Plant response rating, Wheat (wheat): 5
- Plant response rating, Nutsedge, Yellow (nutsedge, yellow; [11]): 10
- Nutsedge, Yellow plant response rating (nutsedge, yellow; [12]): 10
- Plant response rating, Nutsedge, Yellow (nutsedge, yellow; [13]): 25
- Nutsedge, Yellow plant response rating (nutsedge, yellow; [14]): 60
- Pigweed plant response rating (pigweed; [18]): 100
- Pigweed plant response rating (pigweed; [19]): 100
- Barnyardgrass plant response rating (barnyardgrass [4]; [15]): 100
- Barnyardgrass plant response rating (barnyardgrass [4]; [16]): 90
- Crabgrass, Large plant response rating (crabgrass, large [5]; [18]): 100
- Crabgrass, Large plant response rating (crabgrass, large [5]; [19]): 90
- Barnyardgrass plant response rating (barnyardgrass [6]; [20]): 50
- Barnyardgrass plant response rating (barnyardgrass [6]; [21]): 100
- Plant response rating (scale of 0 to 100), Soybean (soybean [7]; Postemergence): 10
- Plant response rating (scale of 0 to 100 where 0 is no effect and 100 is complete control), Soybean (soybean [7]; [17]): 10
- Soybean plant response rating (soybean [7]): 25
- Plant response rating, Soybean (soybean [7]): 35
- Plant response rating (scale of 0 to 100), Oilseed Rape (oilseed rape; Postemergence): 5
- Plant response rating (scale of 0 to 100 where 0 is no effect and 100 is complete control), Oilseed Rape (oilseed rape; [17]): 5
- Oilseed Rape plant response rating (oilseed rape; postemergence, 62 g ai/ha): 5
- Plant response rating, Oilseed Rape (oilseed rape; postemergence): 15
- Plant response rating (scale of 0 to 100), Corn (corn; Postemergence): 0
- Plant response rating (scale of 0 to 100 where 0 is no effect and 100 is complete control), Corn (corn; [17]): 0
- Corn plant response rating (corn; postemergence, 62 g ai/ha): 5
- Plant response rating, Corn (corn; postemergence): 10
- Plant response rating, Velvetleaf (velvetleaf [8]; [11]): 30
- Velvetleaf plant response rating (velvetleaf [8]; [12]): 35
- Plant response rating, Velvetleaf (velvetleaf [8]; [13]): 60
- Velvetleaf plant response rating (velvetleaf [8]; [14]): 100
- Velvetleaf plant response rating (velvetleaf [9]; [15]): 80
- Velvetleaf plant response rating (velvetleaf [9]; [16]): 20
- Plant response rating (scale of 0 to 100), Barnyardgrass (barnyardgrass [10]; Postemergence): 0
- Plant response rating (scale of 0 to 100 where 0 is no effect and 100 is complete control), Barnyardgrass (barnyardgrass [10]; [17]): 0
- Barnyardgrass plant response rating (barnyardgrass [10]; postemergence, 62 g ai/ha): 5
- Plant response rating, Barnyardgrass (barnyardgrass [10]; postemergence): 20

Compound: CCCNC(=O)c1cc(CC)n(Cc2ccnc(C(F)(F)F)c2)n1 [Compound 75]
- Plant response rating, Soybean (soybean [1]; [11]): 35
- Soybean plant response rating (soybean [1]; [12]): 85
- Plant response rating, Soybean (soybean [1]; [13]): 98
- Soybean plant response rating (soybean [1]; [14]): 98
- Crabgrass, Large plant response rating (crabgrass, large [2]; [15]): 100
- Crabgrass, Large plant response rating (crabgrass, large [2]; [16]): 100
- Plant response rating (scale of 0 to 100), Velvetleaf (velvetleaf [3]; Postemergence): 25
- Velvetleaf plant response rating (velvetleaf [3]): 35
- Plant response rating, Velvetleaf (velvetleaf [3]): 40
- Plant response rating (scale of 0 to 100), Wheat (wheat; Postemergence): 0
- Wheat plant response rating (wheat): 5
- Plant response rating, Wheat (wheat): 5
- Nutsedge, Yellow plant response rating (nutsedge, yellow; [12]): 55
- Plant response rating, Nutsedge, Yellow (nutsedge, yellow; [13]): 75
- Nutsedge, Yellow plant response rating (nutsedge, yellow; [14]): 85
- Pigweed plant response rating (pigweed; [18]): 100
- Pigweed plant response rating (pigweed; [19]): 100
- Barnyardgrass plant response rating (barnyardgrass [4]; [15]): 100
- Barnyardgrass plant response rating (barnyardgrass [4]; [16]): 100
- Crabgrass, Large plant response rating (crabgrass, large [5]; [18]): 100
- Crabgrass, Large plant response rating (crabgrass, large [5]; [19]): 100
- Barnyardgrass plant response rating (barnyardgrass [6]; [20]): 90
- Barnyardgrass plant response rating (barnyardgrass [6]; [21]): 90
- Plant response rating (scale of 0 to 100), Soybean (soybean [7]; Postemergence): 40
- Soybean plant response rating (soybean [7]): 75
- Plant response rating, Soybean (soybean [7]): 90
- Plant response rating (scale of 0 to 100), Oilseed Rape (oilseed rape; Postemergence): 20
- Oilseed Rape plant response rating (oilseed rape; Postemergence, 31 g ai/ha): 50
- Oilseed Rape plant response rating (oilseed rape; postemergence, 62 g ai/ha): 50
- Plant response rating, Oilseed Rape (oilseed rape; postemergence): 60
- Plant response rating (scale of 0 to 100), Corn (corn; Postemergence): 0
- Corn plant response rating (corn; Postemergence, 31 g ai/ha): 5
- Corn plant response rating (corn; postemergence, 62 g ai/ha): 20
- Plant response rating, Corn (corn; postemergence): 40
- Plant response rating, Velvetleaf (velvetleaf [8]; [11]): 60
- Velvetleaf plant response rating (velvetleaf [8]; [12]): 75
- Plant response rating, Velvetleaf (velvetleaf [8]; [13]): 100
- Velvetleaf plant response rating (velvetleaf [8]; [14]): 100
- Velvetleaf plant response rating (velvetleaf [9]; [15]): 100
- Velvetleaf plant response rating (velvetleaf [9]; [16]): 80
- Plant response rating (scale of 0 to 100), Barnyardgrass (barnyardgrass [10]; Postemergence): 5
- Barnyardgrass plant response rating (barnyardgrass [10]; Postemergence, 31 g ai/ha): 10
- Barnyardgrass plant response rating (barnyardgrass [10]; postemergence, 62 g ai/ha): 10
- Plant response rating, Barnyardgrass (barnyardgrass [10]; postemergence): 35
